Read-outs that look alike come from different tables or passages of the source.
How the values were obtained:
LNCaP cells = assay: MTT colorimetric anti-proliferative assay; assay type: cell-based, human; details: for GI50: LNCaP, MTT, 7 days; for fold loss/reduction in anti-proliferative activity: relative to lead compound 5 (or parent 32)
Experimental: The cells were treated for 7 days with renewal of test compound and media on day 4. On the 7th day, medium was renewed and MTT (3-(4,5-dimethylthiazol-2-yl)-2,5-diphenyl-2H-tetrazolium bromide) (Sigma, St Louis, Mo., USA) solution (0.5 mg MTT per ml of media) was added to the medium such that the ratio of MTT: medium was 1:10. The cells were incubated with MTT for 2 hours. The medium was then aspirated and DMSO was added to solubilize the violet MTT-formazan product.

AR = target: T1, AR (Homo sapiens, UniProt P10275, T878A); assay: AR down-regulation, western blot analysis in LNCaP cells; assay type: cell-based; details: 24 h, western blot
T1 construct: host or cells: LNCaP
T1 sequence (P10275 1-920 T878A): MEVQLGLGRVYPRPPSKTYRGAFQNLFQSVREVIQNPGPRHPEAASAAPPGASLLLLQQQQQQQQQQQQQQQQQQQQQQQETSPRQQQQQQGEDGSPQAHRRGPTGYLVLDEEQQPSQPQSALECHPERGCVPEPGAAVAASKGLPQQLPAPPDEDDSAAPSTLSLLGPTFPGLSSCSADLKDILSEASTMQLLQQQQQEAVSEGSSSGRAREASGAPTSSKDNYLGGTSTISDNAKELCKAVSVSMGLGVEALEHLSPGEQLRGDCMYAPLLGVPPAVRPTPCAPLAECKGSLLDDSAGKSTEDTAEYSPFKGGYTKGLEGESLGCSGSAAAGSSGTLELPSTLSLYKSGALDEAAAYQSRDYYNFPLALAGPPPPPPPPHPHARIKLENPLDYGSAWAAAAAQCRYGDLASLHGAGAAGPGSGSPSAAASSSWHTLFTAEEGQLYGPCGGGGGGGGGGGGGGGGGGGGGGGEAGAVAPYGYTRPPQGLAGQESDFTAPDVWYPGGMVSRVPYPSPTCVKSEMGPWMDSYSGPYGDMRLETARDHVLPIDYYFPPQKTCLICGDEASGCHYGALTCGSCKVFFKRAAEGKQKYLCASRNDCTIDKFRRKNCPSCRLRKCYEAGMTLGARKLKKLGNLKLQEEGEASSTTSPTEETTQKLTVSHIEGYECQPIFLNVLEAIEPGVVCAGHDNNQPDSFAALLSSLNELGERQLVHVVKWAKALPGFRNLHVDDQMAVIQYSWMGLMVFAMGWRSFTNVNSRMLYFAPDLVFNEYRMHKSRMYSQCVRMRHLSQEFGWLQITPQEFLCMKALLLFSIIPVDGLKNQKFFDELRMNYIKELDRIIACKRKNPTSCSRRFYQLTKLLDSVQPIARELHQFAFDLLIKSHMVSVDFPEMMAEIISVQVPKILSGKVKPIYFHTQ
Experimental: For the Western blot analyses, LNCaP or CWR22v1 prostate cancer cells were cultured. The cells were then treated with the indicated compounds and whole cell lysates were prepared using RIPA lysis buffer (Sigma Aldrich) and protease and phosphatase inhibitors (Sigma Aldrich). All of the antibodies were ordered from cell signaling technology. Protein content was determined using the Bradford Assay (Bio-Rad, Hercules, Calif., USA). Protein was subjected to SDS-PAGE and transferred onto nitrocellulosemembrane. Membranes were then incubated with secondary antibody (cell signaling technology) at room temperature for 1 hour. Bands were visualized by chemiluminescence (Millipore). Protein expression was normalized to β-actin and densitometry was carried out using Image J or ImageQuant 5.0 (Molecular Dynamics, Sunnyvale, Calif., USA). CWR22Rv1 cells were used for endogenous levels of splice variant AR-3. Protein levels were analyzed with respective antibodies; full length AR and β-actin antibodies were purchased from cell signaling, antibody specific for splice variant AR-3 was obtained from Dr. Yun Qiu, University of Maryland, School of Medicine, Baltimore.

[1] = Table 4, read-out: GI50 of C-3 modified compounds
[2] = Homo sapiens, 168 h, Table 2, read-out: GI50 of C-17 modified compounds
[3] = Table 2, read-out: GI50 of C-17 modified compounds
[4] = Homo sapiens, 168 h, Table 4, read-out: GI50 of C-3 modified compounds

Row | Compound | GI50 (LNCaP cells; [1]) [µM] | melting point [°C] | AR down-regulation (ARD) activity, in words (AR) | also measured
1 | 3β-(3-(Oxycarbonyl)phenylacetic acid)-17-(1H-benzimidazol-1-yl)-androsta-5,16-diene [Compound 44] | 7.78 | – | – | –
2 | CON=C1C=C2CC[C@@H]3[C@H](CC[C@]4(C)C(n5cnc6ccccc65)=CC[C@@H]34)[C@@]2(C)CC1 (mixture of isomers) [Compound 38, 3-((EZ)-O-Methyloxime)-17-(1H-Benzimidazol-1-yl)-androsta-4,16-diene] | 3.38 | – | – | –
3 | C[C@]12CCC(=NOCc3ccccc3)C=C1CC[C@@H]1[C@@H]2CC[C@]2(C)C(n3cnc4ccccc43)=CC[C@@H]12 (mixture of isomers) [Compound 39, 3-((EZ)-(O-Phenylmethyl)oxime)-17-(1H-Benzimidazol-1-yl)-androsta-4,16-diene] | 5.57 | – | – | –
4 | Cc1cc2ncn(C3=CC[C@H]4[C@@H]5CC=C6C[C@@H](O)CC[C@]6(C)[C@H]5CC[C@]34C)c2cc1C [Compound 17, 3β-Hydroxy-17-(5,6-dimethyl-1H-benzimidazol-1-yl)-androsta-5,16-diene] | – | 194 to 196 | substantial loss | GI50 (LNCaP cells; [2]): 42.7 µM
5 | C[C@]12CC[C@H](O)CC1=CC[C@@H]1[C@@H]2CC[C@]2(C)C(n3cnc4cc(C#N)ccc43)=CC[C@@H]12 [Compound 18, 3β-Hydroxy-17-(5(6)-nitrile-1H-benzimidazol-1-yl)-androsta-5,16-diene] | – | – | diminished AR down-regulation (ARD) activity | GI50 (LNCaP cells; [3]): 2.81 µM
6 | COc1ccc2ncn(C3=CC[C@H]4[C@@H]5CC=C6C[C@@H](O)CC[C@]6(C)[C@H]5CC[C@]34C)c2c1 [Compound 19, 3β-Hydroxy-17-(6-methoxy-1H-benzimidazol-1-yl)-androsta-5,16-diene] | – | 169 to 179 | no modulation of ARDA | GI50 (LNCaP cells; [3]): 4.26 µM
7 | C[C@]12CC[C@H](O)CC1=CC[C@@H]1[C@@H]2CC[C@]2(C)C(n3cnc4cc5ccccc5cc43)=CC[C@@H]12 [Compound 20, 3β-Hydroxy-17-(1H-benzo[f]benzimidazol-1-yl)-androsta-5,16-diene] | – | 150 to 152 | significant loss of ARDA | GI50 (LNCaP cells; [2]): 19.1 µM
8 | C[C@]12CC[C@H](O)CC1=CC[C@@H]1[C@@H]2CC[C@]2(C)C(n3cnc4c(Cl)ncnc43)=CC[C@@H]12 [Compound 21, 3β-Hydroxy-17-(6-Chloro-9H-purin-9-yl)-androsta-5,16-diene] | – | 272 to 274 | – | GI50 (LNCaP cells; [3]): 13.5 µM; fold loss/reduction in anti-proliferative activity (LNCaP cells): 4 fold
9 | C[C@]12CC[C@H](O)CC1=CC[C@@H]1[C@@H]2CC[C@]2(C)C(n3c(Cl)nc4ccccc43)=CC[C@@H]12 [Compound 22, 3β-Hydroxy-17-(2-chloro-1H-benzimidazol-1-yl)-androsta-5,16-diene] | – | 83 to 86 | – | GI50 (LNCaP cells; [2]): 10.1 µM; fold loss/reduction in anti-proliferative activity (LNCaP cells): 3 fold
10 | CC(C)CCNCC1=C(n2cnc3ccccc32)[C@@]2(C)CC[C@H]3[C@@H](CC=C4C[C@@H](O)CC[C@@]43C)[C@@H]2C1 [Compound 25, 3β-Hydroxy-17-(1H-benzimidazol-1-yl)-16-((isopentylamino)methyl)-androsta-5,16-diene] | – | 111 to 113 | significant loss of ARD | –
11 | C[C@]12CC[C@H](O)CC1=CC[C@@H]1[C@@H]2CC[C@]2(C)C(n3cnc4ccccc43)=C(CNc3ccccc3)C[C@@H]12 [Compound 28, 3β-Hydroxy-17-(1H-benzimidazol-1-yl)-16-((phenylamino)methyl)-androsta-5,16-diene] | – | 130 to 132 | significant loss of ARD | GI50 (LNCaP cells; Homo sapiens, 168 h, LNCaP cells, Table 3, read-out: GI50 of C-16 modified compounds): 22.1 µM
12 | C[C@]12CCC(=O)C=C1CC[C@@H]1[C@@H]2CC[C@]2(C)C(n3cnc4ccccc43)=CC[C@@H]12 [Compound 32, 17-(1H-Benzimidazol-1-yl)-androsta-4,16-dien-3-one] | – | – | – | GI50 (LNCaP cells; [4]): 2.64 µM
13 | C[C@]12CCC(=O)CC1=CC[C@@H]1[C@@H]2CC[C@]2(C)C(n3cnc4ccccc43)=CC[C@@H]12 [Compound 33, 17-(1H-Benzimidazol-1-yl)-androsta-5,16-dien-3-one] | – | 170 to 172 | – | GI50 (LNCaP cells; [4]): 16 µM; fold loss/reduction in anti-proliferative activity (LNCaP cells): ~5 fold
14 | C[C@]12CC[C@H](OS(C)(=O)=O)CC1=CC[C@@H]1[C@@H]2CC[C@]2(C)C(n3cnc4ccccc43)=CC[C@@H]12 [Compound 34, 3β-Mesyloxy-17-(1H-benzimidazol-1-yl)-androsta-5,16-dien] | – | – | – | GI50 (LNCaP cells; [4]): 42.1 µM
15 | Cc1ccc(S(=O)(=O)O[C@H]2CC[C@@]3(C)C(=CC[C@@H]4[C@@H]3CC[C@]3(C)C(n5cnc6ccccc65)=CC[C@@H]43)C2)cc1 [Compound 35, 3β-Tosyloxy-17-(1H-benzimidazol-1-yl)-androsta-5,16-dien] | 47.2 | 139 to 141 | – | –
16 | CC1(O)C=C2CC[C@@H]3[C@H](CC[C@]4(C)C(n5cnc6ccccc65)=CC[C@@H]34)[C@@]2(C)CC1 (stereo partly drawn) [Compound 40, 3-Methyl-3-hydroxy-17-(1H-benzimidazol-1-yl)-androsta-4,16-diene] | – | 95 to 97 | – | GI50 (LNCaP cells; [4]): 13.3 µM; fold loss/reduction in anti-proliferative activity (LNCaP cells): ~5 fold
17 | C[C@]12CC[C@H](OC(=O)C3CC=CCC3C(=O)O)CC1=CC[C@@H]1[C@@H]2CC[C@]2(C)C(n3cnc4ccccc43)=CC[C@@H]12 (stereo partly drawn) [Compound 45, 3β-(6-(Cyclohex-3-enecaboxylic acid)carboxylate)-17-(1H-benzimidazol-1-yl)-androsta-5,16-diene] | 8.22 | – | – | –
18 | C[C@]12CC[C@H](OC(=O)COCC(=O)O)CC1=CC[C@@H]1[C@@H]2CC[C@]2(C)C(n3cnc4ccccc43)=CC[C@@H]12 [Compound 46, 3β-(Oxycarbonyl-(methoxy)acetic acid)-17-(1H-benzimidazol-1-yl)-androsta-5,16-diene] | 9.13 | – | – | –
19 | C[C@]12CC[C@H](OC(=O)n3cncn3)CC1=CC[C@@H]1[C@@H]2CC[C@]2(C)C(n3cnc4ccccc43)=CC[C@@H]12 [Compound 49, 3β-(1H-1,2,4-Triazole-1-carboxylate)-17-(1H-benzimidazol-1-yl)-androsta-5,16-diene] | 6.67 | – | – | fold decrease in anti-proliferative activity (LNCaP cells; relative to 47): ~8 fold
